Assay results reported in ChEMBL document CHEMBL4823324, “Discovery of BMS-986318, a Potent Nonbile Acid FXR Agonist for the Treatment of Nonalcoholic Steatohepatitis” (ACS Med Chem Lett, 2021).

Columns and labels:
[1] = target: T1, Oxysterols receptor LXR-beta (Homo sapiens, UniProt P55055); assay: Activation of human LXRbeta co-expressed with TK-luciferase reporter in African green monkey CV-1 cells incubated for overnight by Steady-Glo luciferase reporter gene based luminescence analysis; type: cell-based
T1 sequence (P55055 whole entry): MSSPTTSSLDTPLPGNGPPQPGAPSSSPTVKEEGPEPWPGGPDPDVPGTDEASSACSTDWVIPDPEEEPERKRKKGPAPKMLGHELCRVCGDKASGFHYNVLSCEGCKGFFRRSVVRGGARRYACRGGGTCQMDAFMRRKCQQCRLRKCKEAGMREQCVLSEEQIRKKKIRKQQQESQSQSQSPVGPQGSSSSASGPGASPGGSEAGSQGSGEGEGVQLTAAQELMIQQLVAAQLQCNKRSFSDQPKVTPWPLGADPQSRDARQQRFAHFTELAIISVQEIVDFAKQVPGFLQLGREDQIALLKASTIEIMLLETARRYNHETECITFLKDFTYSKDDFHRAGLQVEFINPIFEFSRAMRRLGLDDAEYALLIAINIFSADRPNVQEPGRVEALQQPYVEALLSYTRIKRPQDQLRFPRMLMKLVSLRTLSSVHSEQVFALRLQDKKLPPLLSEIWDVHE

[2] = target: T2, Peroxisome proliferator-activated receptor gamma (Homo sapiens, UniProt P37231); assay: Activation of PPARgamma LBD (unknown origin) co-expressed with Gal4UAS-luciferase reporter in HEK293 cells incubated for 24 hrs by Steady-Glo luciferase reporter gene based luminescence analysis; type: cell-based
T2 sequence (P37231 whole entry): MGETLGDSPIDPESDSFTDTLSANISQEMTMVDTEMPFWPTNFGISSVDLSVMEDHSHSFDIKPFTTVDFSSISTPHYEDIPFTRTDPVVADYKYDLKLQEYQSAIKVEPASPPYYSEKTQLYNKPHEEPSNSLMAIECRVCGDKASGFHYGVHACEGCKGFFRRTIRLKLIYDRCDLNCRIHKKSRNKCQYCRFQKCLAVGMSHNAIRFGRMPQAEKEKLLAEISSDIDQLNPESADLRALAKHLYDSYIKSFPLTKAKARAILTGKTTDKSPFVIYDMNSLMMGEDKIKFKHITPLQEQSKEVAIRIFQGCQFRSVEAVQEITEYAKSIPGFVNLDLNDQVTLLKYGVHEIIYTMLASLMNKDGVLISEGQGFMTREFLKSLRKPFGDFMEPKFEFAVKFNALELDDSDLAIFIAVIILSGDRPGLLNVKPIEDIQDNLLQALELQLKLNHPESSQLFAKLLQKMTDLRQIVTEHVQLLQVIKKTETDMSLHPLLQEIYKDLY

[3] = target: T3, Peroxisome proliferator-activated receptor delta (Homo sapiens, UniProt Q03181); assay: Activation of PPARdelta LBD (unknown origin) co-expressed with Gal4UAS-luciferase reporter in HEK293 cells incubated for 24 hrs by Steady-Glo luciferase reporter gene based luminescence analysis; type: cell-based
T3 sequence (Q03181 whole entry): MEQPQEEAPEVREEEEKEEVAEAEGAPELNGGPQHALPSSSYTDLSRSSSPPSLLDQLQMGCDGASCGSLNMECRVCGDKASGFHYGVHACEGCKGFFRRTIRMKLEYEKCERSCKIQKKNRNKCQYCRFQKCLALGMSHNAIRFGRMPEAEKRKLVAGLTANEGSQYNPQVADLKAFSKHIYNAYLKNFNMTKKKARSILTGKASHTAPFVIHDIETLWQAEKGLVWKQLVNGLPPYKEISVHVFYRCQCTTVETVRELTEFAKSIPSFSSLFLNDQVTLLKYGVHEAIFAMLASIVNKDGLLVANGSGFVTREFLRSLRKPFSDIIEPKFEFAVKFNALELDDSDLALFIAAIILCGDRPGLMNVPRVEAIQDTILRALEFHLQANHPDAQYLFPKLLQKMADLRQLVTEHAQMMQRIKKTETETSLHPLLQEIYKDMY

[4] = Plasma protein binding in C57B6 mouse assessed as unbound fraction at 1 mg/kg, iv; type: ADME, organism-based; settings: in vivo
Androgen receptor = target: T4, Androgen receptor (Homo sapiens, UniProt P10275); assay: Activation of androgen receptor (unknown origin) by fluorescence polarization based competition assay
T4 sequence (P10275 whole entry): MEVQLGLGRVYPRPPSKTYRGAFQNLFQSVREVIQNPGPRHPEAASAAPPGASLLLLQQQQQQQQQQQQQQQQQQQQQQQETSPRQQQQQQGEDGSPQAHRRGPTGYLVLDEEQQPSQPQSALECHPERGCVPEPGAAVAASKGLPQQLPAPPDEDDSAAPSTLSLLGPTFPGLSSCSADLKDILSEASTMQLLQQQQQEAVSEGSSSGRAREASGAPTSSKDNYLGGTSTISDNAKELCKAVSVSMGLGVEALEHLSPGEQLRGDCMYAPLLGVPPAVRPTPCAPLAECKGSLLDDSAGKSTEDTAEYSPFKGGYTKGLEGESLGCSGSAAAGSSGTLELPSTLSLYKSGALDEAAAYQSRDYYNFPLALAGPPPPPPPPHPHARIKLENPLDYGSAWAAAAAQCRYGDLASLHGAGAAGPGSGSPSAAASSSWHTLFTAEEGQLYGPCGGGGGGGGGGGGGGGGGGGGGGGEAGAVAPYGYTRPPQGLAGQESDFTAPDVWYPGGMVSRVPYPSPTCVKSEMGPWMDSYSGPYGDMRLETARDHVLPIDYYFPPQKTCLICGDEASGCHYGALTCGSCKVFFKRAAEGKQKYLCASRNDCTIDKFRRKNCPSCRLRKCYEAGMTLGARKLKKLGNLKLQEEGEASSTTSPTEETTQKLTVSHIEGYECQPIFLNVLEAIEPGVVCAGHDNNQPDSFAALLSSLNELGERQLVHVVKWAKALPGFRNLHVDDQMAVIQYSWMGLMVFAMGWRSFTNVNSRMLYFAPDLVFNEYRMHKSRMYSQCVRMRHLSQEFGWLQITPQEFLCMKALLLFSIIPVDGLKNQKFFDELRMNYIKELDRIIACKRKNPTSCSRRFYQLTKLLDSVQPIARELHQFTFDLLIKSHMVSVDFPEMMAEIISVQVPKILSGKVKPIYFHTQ

SMILES: O=C(O)c1cc(C(F)(F)F)c2cc(N3CCC4(C=C(c5c(-c6c(Cl)cncc6Cl)noc5C5CC5)C4)CC3)ccc2n1
- EC50 [1]: > 40 µM
- EC50 [2]: > 40 µM
- EC50 [3]: > 40 µM
- Fu [4]: < 0.01%
- EC50 (Androgen receptor): > 40 µM
